Drawing on patent US7879887B2, “α-amino acid derivatives and medicaments containing the same as an active ingredient” (Nissan Chemical Industries, Ltd., priority 2006, dated 2011), this text covers IC50 for 5 molecules.

Each structure is given as a SMILES string.

One experiment addresses T1, Aurora A (Homo sapiens, UniProt O14965).
T1 construct: purchased Upstate Inc. 14-511
T1 sequence (O14965 1-403): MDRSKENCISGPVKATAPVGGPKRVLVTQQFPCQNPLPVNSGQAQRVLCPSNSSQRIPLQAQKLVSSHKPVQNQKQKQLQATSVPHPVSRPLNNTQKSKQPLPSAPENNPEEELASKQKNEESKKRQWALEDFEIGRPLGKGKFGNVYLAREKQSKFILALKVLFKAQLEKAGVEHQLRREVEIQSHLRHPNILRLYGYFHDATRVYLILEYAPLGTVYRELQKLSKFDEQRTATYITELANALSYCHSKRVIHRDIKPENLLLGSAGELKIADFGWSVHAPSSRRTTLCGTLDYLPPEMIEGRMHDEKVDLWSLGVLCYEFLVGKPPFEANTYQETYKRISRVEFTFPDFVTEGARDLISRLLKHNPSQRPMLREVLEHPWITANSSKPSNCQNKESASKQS
The experiment in a line: In vitro kinase assay, Aurora A. The format is biochemical. The settings on record: recombinant protein (Upstate). The procedure, abridged:
(§1)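 Recombinant human enzymes assayed per supplier protocol. IC50 derived with compound-free wells set as 0% inhibition and compound- and enzyme-free wells as 100% inhibition.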

For a further experiment, the target named is T2, CDK1/Cyclin B complex (Homo sapiens, UniProt P06493).
T2 construct: purchased Upstate Inc. 14-450
T2 sequence (P06493 whole entry): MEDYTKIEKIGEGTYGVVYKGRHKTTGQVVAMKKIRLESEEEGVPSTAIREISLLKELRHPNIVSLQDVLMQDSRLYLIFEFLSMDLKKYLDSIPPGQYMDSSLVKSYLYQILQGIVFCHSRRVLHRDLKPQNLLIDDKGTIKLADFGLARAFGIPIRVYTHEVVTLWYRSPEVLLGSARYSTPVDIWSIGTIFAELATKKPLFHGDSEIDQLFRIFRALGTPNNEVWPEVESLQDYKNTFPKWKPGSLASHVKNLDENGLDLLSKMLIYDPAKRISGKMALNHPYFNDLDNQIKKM
T2 sequence (P14635 whole entry partner): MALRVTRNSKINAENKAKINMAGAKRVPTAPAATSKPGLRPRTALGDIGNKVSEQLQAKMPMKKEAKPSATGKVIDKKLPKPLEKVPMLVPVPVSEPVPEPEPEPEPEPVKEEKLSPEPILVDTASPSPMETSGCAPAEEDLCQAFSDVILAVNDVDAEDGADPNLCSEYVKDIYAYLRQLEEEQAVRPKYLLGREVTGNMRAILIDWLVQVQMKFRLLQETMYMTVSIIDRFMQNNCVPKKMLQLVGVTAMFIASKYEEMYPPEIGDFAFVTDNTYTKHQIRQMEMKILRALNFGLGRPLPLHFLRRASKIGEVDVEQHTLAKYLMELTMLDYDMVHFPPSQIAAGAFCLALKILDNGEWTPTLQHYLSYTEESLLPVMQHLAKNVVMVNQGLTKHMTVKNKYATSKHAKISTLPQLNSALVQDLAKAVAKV
The experiment in a line: In vitro kinase assay, CDK1/Cyclin B complex. The format is biochemical. The conditions noted are these: recombinant protein (Upstate). The procedure, abridged: as §1

The target in another experiment is T3, CDK3/Cyclin E complex (Homo sapiens, UniProt Q00526).
T3 construct: purchased Upstate Inc. 14-487
T3 sequence (Q00526 whole entry): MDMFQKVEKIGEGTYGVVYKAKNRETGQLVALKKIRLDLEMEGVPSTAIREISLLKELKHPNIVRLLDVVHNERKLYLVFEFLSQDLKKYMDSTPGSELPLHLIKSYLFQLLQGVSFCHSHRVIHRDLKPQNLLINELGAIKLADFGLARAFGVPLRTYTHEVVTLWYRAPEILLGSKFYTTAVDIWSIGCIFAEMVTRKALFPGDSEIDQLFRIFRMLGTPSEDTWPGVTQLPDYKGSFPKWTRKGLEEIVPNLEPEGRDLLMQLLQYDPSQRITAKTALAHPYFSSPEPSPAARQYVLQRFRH
T3 sequence (P24864 whole entry partner): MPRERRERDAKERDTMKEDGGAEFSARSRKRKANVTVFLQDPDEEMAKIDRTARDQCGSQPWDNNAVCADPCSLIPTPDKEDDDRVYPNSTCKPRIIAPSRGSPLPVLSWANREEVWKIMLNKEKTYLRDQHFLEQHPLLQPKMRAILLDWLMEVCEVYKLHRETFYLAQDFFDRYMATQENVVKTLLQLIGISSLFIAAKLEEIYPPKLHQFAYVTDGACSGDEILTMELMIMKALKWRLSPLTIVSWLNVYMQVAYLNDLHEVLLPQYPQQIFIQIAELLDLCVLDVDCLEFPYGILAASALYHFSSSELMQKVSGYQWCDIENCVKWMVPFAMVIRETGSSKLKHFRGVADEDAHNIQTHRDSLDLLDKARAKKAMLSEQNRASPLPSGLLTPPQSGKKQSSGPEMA
Put plainly: In vitro kinase assay, CDK3/Cyclin E complex. The format is biochemical. The conditions noted are these: recombinant protein (Upstate); read-out: CDK3/cyclinE IC50. On the procedure:
Inhibitory activity against Aurora A, CDK1/Cyclin B complex, CDK2/Cyclin E complex and CDK3/Cyclin E complex were measured by in vitro kinase assay using recombinant proteins.

Experiment [1] deals with colon carcinoma cell line SW620. Put plainly: Cell proliferation inhibitory activity, SW620. The format is cell-based, human. The conditions noted are these: Homo sapiens, SW-620, 96 h, cells counted 4 days later with Cell Counting Kit-8. The procedure, abridged:
(§2)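 Suspended cells were added to test substance solutions at a range of concentrations and cultured for 4 days at 37° C in a 5% CO2 incubator. Viable cell numbers were then determined by CCK-8.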
On the technique in general: Formazan colour is commonly taken as a measure of viable cells.

The test system of experiment [2] is pancreatic cancer cell line MIAPaCa-2. Put plainly: Cell proliferation inhibitory activity, MIAPaCa-2. The format is cell-based. The conditions noted are these: Homo sapiens, MIA PaCa-2, 96 h; cells counted 4 days later, Cell Counting Kit-8. The procedure, abridged:
as §2

Experiment [3] concerns prostate cancer cell line DU 145. The experiment in a line: Cell proliferation inhibitory activity, DU 145. The format is cell-based, human. The settings on record: Homo sapiens, 96 h, cells counted 4 days later with Cell Counting Kit-8. The procedure, abridged: as §2
The subject of experiment [4] is lung carcinoma cell line NCI-H460. The experiment in a line: Cell proliferation inhibitory activity, NCI-H460. The format is cell-based. The conditions noted are these: Homo sapiens, 96 h, cells counted 4 days later with Cell Counting Kit-8. The procedure, abridged: as §2
Experiment [5] concerns breast cancer cell line MDA-MB-231. Put plainly: Cell proliferation inhibitory activity, MDA-MB-231. The format is cell-based. The conditions noted are these: Homo sapiens, 96 h, cells counted 4 days later with Cell Counting Kit-8. The procedure, abridged: as §2
For experiment [6], the system named is ovarian cancer cell line IGROV1. Put plainly: Cell proliferation inhibitory activity, IGROV1. The format is cell-based. The conditions noted are these: Homo sapiens, IGROV-1, 96 h, cells counted 4 days later with Cell Counting Kit-8. The procedure, abridged:
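Read-out: Cell Counting Kit-8 cell counts taken 4 days after cells in medium were added to graded test-substance concentrations. Incubation was at 37° C under 5% CO2. IC50 values were based on vehicle wells set to 0% inhibition and wells lacking compound and cells set to 100%.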

The next experiment relates to leukemia cell line KG-1a. The experiment in a line: Cell proliferation inhibitory activity, KG-1a. The conditions noted are these: Homo sapiens, 96 h, cells counted 4 days later with Cell Counting Kit-8. The format is cell-based. The procedure, abridged:
as §2

With `CNC(=O)c1cc(NC(C)(C)C(=O)Nc2nc3c(C(F)(F)F)cc4[nH]ncc4c3s2)ccc1Cl` [compound 55], the IC50 at Aurora A came out at 0.185 µM; at CDK1/Cyclin B complex it was 0.073 µM; on CDK3/Cyclin E complex it was 0.023 µM; in experiment [1], 0.3 µM; in experiment [2], 4.1 µM; in experiment [3] it was 0.9 µM. Also, the IC50 is 0.8 µM in experiment [4], 3.2 µM in experiment [5], 2.7 µM in experiment [6] and less than 0.1 µM in the experiment with leukemia cell line KG-1a.

As for `CC(=O)Nc1cc(NC(C)(C)C(=O)Nc2nc3c(C(F)(F)F)cc4[nH]ncc4c3s2)ccc1F` [compound 81], the IC50 at Aurora A amounted to 0.444 µM; on CDK1/Cyclin B complex it was 0.377 µM; on CDK3/Cyclin E complex, 0.055 µM; in experiment [1], 0.8 µM; in experiment [2], 4.7 µM; in experiment [3], 1.1 µM. Further, the IC50 was 1.3 µM in [4], 4.2 µM in [5], 2.4 µM in experiment [6] and less than 0.1 µM with leukemia cell line KG-1a.

Take `CC(C)(Nc1cccc(S(N)(=O)=O)c1)C(=O)Nc1nc2c(C(F)(F)F)cc3[nH]ncc3c2s1` [compound 82]: the IC50 on Aurora A amounted to 0.014 µM; on CDK1/Cyclin B complex it was 0.02 µM; on CDK3/Cyclin E complex, 0.0059 µM; in experiment [1] it was 0.2 µM; in experiment [2] it was 2.5 µM; in experiment [3], 0.4 µM. In addition, the IC50 in experiment [4] was 0.4 µM; in experiment [5] it was 2.1 µM; in [6] it was 0.9 µM; in the experiment on leukemia cell line KG-1a, less than 0.1 µM.

On to `CC(C)(Nc1ccc(Cl)c(C(=O)NCC(N)=O)c1)C(=O)Nc1nc2c(C(F)(F)F)cc3[nH]ncc3c2s1` [compound 85], for which the IC50 was determined as 0.071 µM at Aurora A; 0.0018 µM on CDK1/Cyclin B complex; 0.0006 µM at CDK3/Cyclin E complex; 0.3 µM in [1]; 1.8 µM in [2]; 1.3 µM in [3]. Further, the IC50 in experiment [4] is 1.2 µM; in [5], 2.5 µM; in experiment [6], 1.8 µM; in the experiment on leukemia cell line KG-1a, less than 0.1 µM.

Turning to `CC(C)(Nc1ccc(Cl)c(C(N)=O)c1)C(=O)Nc1nc2c(C(F)(F)F)cc3[nH]ncc3c2s1` [compound 135], the IC50 on Aurora A was 0.04 µM; at CDK1/Cyclin B complex, 0.083 µM; on CDK3/Cyclin E complex, 0.023 µM; in experiment [1] it was 0.3 µM; in [2], 4.1 µM; in experiment [3] it was 0.5 µM. The IC50 is 0.9 µM in [4], 1.6 µM in experiment [5], 1.5 µM in experiment [6] and less than 0.1 µM in the experiment with leukemia cell line KG-1a.
